{
  "source": "patent US12508275B2",
  "about": "“Neomycin based compounds, and pharmaceutical use thereof” (UNIVERSITÉ COTE D'AZUR, priority 2019, dated 2025)",
  "key": {"GB5 cells [1]": {"test_system": "GB5 cells", "assay": "Mitosis: cells positive for histone H3 phosphorylated on ser-10, GB5", "format": "cell-based, human", "settings": "GB5, H3-ser10 positive cells", "experimental": "(§1) FIG. 2: Compounds 9a-b and 18a-b effect on stemness marker expression, clonal expansion and mitosis in GB5 cells. (A) NESTIN expression was assessed by immunofluorescence in GB5 treated with increasing amount of Compounds 9a-b and 18a. The number of NESTIN positive cells was counted for each treatment and express as percentage of the control (100%). The results are the meaning of at least two separate experiments. […] (C) Clonal expansion analysis was performed with GB5 cells as described in the material and method section. Two and three weeks later, the number of spheroids is counted and reported as percentage of the initial number of cells in the well. The results are the meaning of a minimum of two separate experiments. (D) The number of mitosis in the culture was determined by the detection of the number of cells positive for histone H3 phosphorylated on ser-10 (H3-ser10). H3-ser10 expression was assessed by immunofluorescence in GB5 treated with increasing amount of Compounds 9a-b and 18a. The number of positive cells was counted for each treatment and express as percentage of the control (100%). The results are the meaning of at least two separate experiments.\n(§2) III—Immunofluorescence assay: TG6 and GB5 were seeded at 2000 cells/well in 24 wells plate in NS34+ alone or containing 5, 7.5, 10, 12.5, 15, 20 and 25 uM of Compounds 9a-b and 18a-b. Cultures were incubated 4 days and the cells were fixed with 4% paraformaldehyde for 10 min at room temperature then washed with PBS. Cells were then incubated with ammonium chloride at 20 mM 5 min at room temperature and washed 5 times with PBS. Blocking and hybridization were realized in PBS containing 10% FCS and 0.1% Triton X100. Anti-Nestin and anti-H3Phospho serine 10 antibodies were incubated 2 hours at room temperature then washed with PBS. Fluorescence coupled secondary antibodies and Hoechst 33342 nuclei counterstaining reagent were hybridized one hour at room temperature. Cells were mounted with anti-fading agent then imaged, counted and quantified using fluorescent microscopy (TiE Nikon) and NiS software (Nikon).\n(§3) It was further investigated the effects of selected compounds on GSC clonal expansion as well as their capacity of mitosis (FIGS. 2B and C). Compounds 9a-b and 18a treatment altered GSC clonal expansion and mitosis. The most efficient inhibition of clonal expansion was provided by Compound 9a treatment (IC50<10 uM) while both Compounds 9a-b were the most efficient for mitosis inhibition (IC50<10 uM) (FIGS. 2C and D)."}, "[2]": {"test_system": "normal neural stem cells (NNSC)", "assay": "XTT toxicity assay on normal neural stem cells", "format": "cell-based", "experimental": "FIG. 4: Determination of compound toxicity on GSC and normal human cells. (A) GB5 were incubated with growing concentration of Compounds 9a-b and 18a. (B) human normal neural stem cell (NNSC), human normal kidney cells (NHEK), human normal hepatocytes (HEPRG) and (C) human endothelial cells (HUVEC) were treated with growing concentration of Compound 9a. 7 days later, the cells were subjected to an XTT assays as described in the method section. The results are the meaning of at least two separate experiments. Cell death was confirmed by trypan blue staining (not shown).\nV—Toxicity tests: NNSC, GB5, TG6, HEK293, and HepaRG, HUVEC were seeded at 2000 cells/well in 96 wells plate in their respective culture mediums alone or containing growing concentration from 10 to 500 uM of Compounds 9a-b. Cultures were incubated 4 days and the cellular toxicity has been evaluated by XTT assays. Cell viability has been also assessed by counting living and dead cells with trypan blue staining.\nXTT assays allows, through cell metabolism measurement, to determine a cytotoxic/cytostatic effects. Compounds 9a-b and 18a were tested for their eventual toxicity by XTT assays as described in the material and method section. At the working concentrations 10 to 25 uM, the compounds are not toxic for GSC (FIG. 4A). […]"}, "NESTIN expression in GB5": {"test_system": "NESTIN expression in GB5", "assay": "NESTIN expression by immunofluorescence in GB5", "format": "cell-based, human", "settings": "GB5, seven days", "experimental": "as §1, §2\nPatient derived GSC (GB5) have been treated during seven days, with growing concentrations of compounds that have been capable of inducing changes of GSC morphology. To assess the consequence on stemness maintenance, we observed, by immunofluorescence, the expression of stemness and progenitor cells such as the NESTIN protein. […] The strongest effect has been obtained with Compounds 9a treatment (IC50=10 uM)."}, "GB5 cells [3]": {"test_system": "GB5 cells", "assay": "Clonal expansion (clonal proliferation) of GB5", "format": "cell-based, human", "experimental": "as §1\nClonal proliferation: TG6 and GB5 were seeded at 10 cells/well in 96 wells plate in NS34+ medium alone or containing growing concentration of Compounds 9a-b and 18a-b. Immediately after seeding, the real number of cells in the well was determined by direct count. Two and three weeks later, the resulting number of spheroids in each well was evaluated by a direct count. The % of clonal efficiency was calculated in dividing […].\nas §3"}, "[4]": {"test_system": "GSC expressing a luciferase gene (GB1-luc) brain tumors", "assay": "Orthotopic GB1-luc xenograft, treatment of already formed tumors", "format": "in vivo, nude mice", "settings": "7.5 mg/kg three times a week, live imaging, vs DMSO; 11th week P value=0,017", "experimental": "FIG. 3: Nude mice were orthotopically xenografted by luminescent patient derived GSC. (A-B) Two weeks following injections, mice were intraperitoneally injected with 10 mg/kg (n=4), 7.5 mg/kg (n=4) or 5 mg/kg (n=4) of Compound 9a or vehicle alone as control (ctl n=10). A) graphical representation of the average of tumor growth in the control group (n=10) and in each Compound 9a treated groups. B) Survival of the whole population of mice of the untreated and treated groups were compared using a log rank test according to Kaplan Meier method. (R command, see World Wide Web: biostatgv.sentiweb.fr/?module=tests/surv). The solid line represents the survival rate of control untreated mice. The dotted line represents the survival rate of mice treated by compound 9a. C) Mice treatment with compound 9a when the tumors were already formed. Tumor growth representation in mice, treated either with DMSO (control: -♦-) or Compound 9a (-▪-). Tumor growth was controlled every week by live imaging. The solid line represents the tumor growth in control untreated mice. The dotted line represents the tumor growth in mice treated by compound 9a.\nTo further determine whether Compound 9a might also alter tumor growth of tumors that were already formed before treatment, 50000 GSC expressing a luciferase gene (GB1-luc) for luminescent live imaging were injected in the brain of 12 nude mice. […]"}},
  "data": [
    {"smiles": "NCCCCNCCCNC(=O)c1csc(-c2csc(CCNC(=O)CCc3cn(CC4OC(OC5C(O)C(N)CC(N)C5OC5OC(CN)C(O)C(O)C5N)C(O)C4OC4OC(CN)C(O)C(O)C4N)nn3)n2)n1", "note": "(stereo not drawn) [Compound 9a, N-(3-((4-Aminobutyl)amino)propyl)-2′-(2-(3-(1-methyl-1H-1,2,3-triazol-4-yl)propanamido)ethyl)-[2,4′-bithiazole]-4-carboxamide-neomycin]", "values": [
      {"measurement": "GSC mitosis", "setting": "GB5 cells [1]", "result": "altered"},
      {"measurement": "IC50", "setting": "GB5 cells [1]; Homo sapiens, read-out: mitosis inhibition IC50", "result": "< 10", "unit": "µM"},
      {"measurement": "toxicity (XTT)", "setting": "[2]; 100 uM and above", "result": "toxic"},
      {"measurement": "toxicity (XTT)", "setting": "[2]; between 10 to 50 uM", "result": "not toxic"},
      {"measurement": "NESTIN expression", "setting": "NESTIN expression in GB5; growing concentrations", "result": "drop in NESTIN expression"},
      {"measurement": "IC50", "setting": "NESTIN expression in GB5; Homo sapiens, 168 h", "result": 10, "unit": "µM"},
      {"measurement": "GSC clonal expansion", "setting": "GB5 cells [3]; GB5, spheroids counted after two and three weeks", "result": "altered"},
      {"measurement": "IC50", "setting": "GB5 cells [3]; Homo sapiens, GB5, read-out: inhibition of clonal expansion IC50", "result": "< 10", "unit": "µM"},
      {"measurement": "growth of tumors already formed before treatment", "setting": "[4]", "result": "repressed tumor growth"}
    ]}
  ]
}
